Assay [1] addresses T1, Sodium- and chloride-dependent glycine transporter 1 (Homo sapiens, UniProt P48067).
T1 sequence (P48067 whole entry): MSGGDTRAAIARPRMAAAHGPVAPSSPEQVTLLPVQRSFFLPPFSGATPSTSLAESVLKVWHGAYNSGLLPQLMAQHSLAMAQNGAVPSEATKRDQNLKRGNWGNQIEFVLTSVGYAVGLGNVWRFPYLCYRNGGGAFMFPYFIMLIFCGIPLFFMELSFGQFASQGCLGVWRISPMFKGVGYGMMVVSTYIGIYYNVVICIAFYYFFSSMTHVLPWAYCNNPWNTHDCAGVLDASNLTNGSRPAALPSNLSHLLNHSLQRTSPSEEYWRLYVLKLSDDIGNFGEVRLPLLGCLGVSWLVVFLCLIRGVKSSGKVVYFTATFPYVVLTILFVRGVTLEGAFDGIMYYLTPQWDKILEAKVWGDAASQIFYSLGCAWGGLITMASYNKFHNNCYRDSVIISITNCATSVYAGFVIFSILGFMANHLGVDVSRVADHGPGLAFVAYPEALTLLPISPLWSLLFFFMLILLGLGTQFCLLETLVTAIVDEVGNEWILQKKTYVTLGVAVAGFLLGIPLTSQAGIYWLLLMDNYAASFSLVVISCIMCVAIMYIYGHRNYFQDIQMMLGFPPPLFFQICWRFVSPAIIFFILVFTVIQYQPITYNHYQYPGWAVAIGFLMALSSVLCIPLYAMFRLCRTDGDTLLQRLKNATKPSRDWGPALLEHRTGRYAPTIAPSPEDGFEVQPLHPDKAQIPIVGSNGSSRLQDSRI
Put plainly: Inhibition of [3H]glycine uptake using CHO cells transfected with GlyT-1b transporter. It is filed as cell-based.

Another assay deals with T2, D(4) dopamine receptor (Rattus norvegicus, UniProt P30729).
T2 sequence (P30729 whole entry): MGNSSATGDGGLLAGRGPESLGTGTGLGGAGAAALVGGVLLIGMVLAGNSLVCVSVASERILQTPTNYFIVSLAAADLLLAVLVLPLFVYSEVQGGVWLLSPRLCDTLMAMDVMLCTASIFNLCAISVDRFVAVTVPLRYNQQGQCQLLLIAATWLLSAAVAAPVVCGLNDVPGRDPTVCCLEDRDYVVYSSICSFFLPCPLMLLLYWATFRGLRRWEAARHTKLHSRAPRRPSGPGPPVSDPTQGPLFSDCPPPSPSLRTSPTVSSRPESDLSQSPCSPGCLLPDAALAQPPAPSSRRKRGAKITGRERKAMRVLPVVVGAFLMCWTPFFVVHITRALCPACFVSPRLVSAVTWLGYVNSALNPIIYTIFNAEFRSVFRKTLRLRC
Put plainly: Binding affinity of compound towards Dopamine receptor D4 was determined.

The target of assay [2] is Beta-2 adrenergic receptor (Homo sapiens, UniProt P07550). Put plainly: Binding affinity of compound towards Beta-2 adrenergic receptor was determined.
Chain of Beta-2 adrenergic receptor (P07550 whole entry): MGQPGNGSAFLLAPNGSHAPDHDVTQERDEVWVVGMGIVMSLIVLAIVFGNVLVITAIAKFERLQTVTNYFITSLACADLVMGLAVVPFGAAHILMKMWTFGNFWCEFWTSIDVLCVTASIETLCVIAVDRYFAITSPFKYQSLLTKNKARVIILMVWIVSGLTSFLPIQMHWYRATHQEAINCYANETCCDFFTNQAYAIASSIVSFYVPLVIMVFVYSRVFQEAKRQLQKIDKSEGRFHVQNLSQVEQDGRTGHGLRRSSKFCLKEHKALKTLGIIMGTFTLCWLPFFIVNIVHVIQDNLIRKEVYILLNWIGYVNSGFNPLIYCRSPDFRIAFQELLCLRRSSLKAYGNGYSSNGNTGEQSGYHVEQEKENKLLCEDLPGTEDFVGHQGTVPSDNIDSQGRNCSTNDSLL
Assay [3] addresses 5-hydroxytryptamine receptor 2A (Rattus norvegicus, UniProt P14842). Put plainly: Binding affinity of compound towards serotonin 5-hydroxytryptamine 2A receptor was determined.
Assay [4] addresses T3, 5-hydroxytryptamine receptor 1A (Rattus norvegicus, UniProt P19327).
T3 sequence (P19327 whole entry): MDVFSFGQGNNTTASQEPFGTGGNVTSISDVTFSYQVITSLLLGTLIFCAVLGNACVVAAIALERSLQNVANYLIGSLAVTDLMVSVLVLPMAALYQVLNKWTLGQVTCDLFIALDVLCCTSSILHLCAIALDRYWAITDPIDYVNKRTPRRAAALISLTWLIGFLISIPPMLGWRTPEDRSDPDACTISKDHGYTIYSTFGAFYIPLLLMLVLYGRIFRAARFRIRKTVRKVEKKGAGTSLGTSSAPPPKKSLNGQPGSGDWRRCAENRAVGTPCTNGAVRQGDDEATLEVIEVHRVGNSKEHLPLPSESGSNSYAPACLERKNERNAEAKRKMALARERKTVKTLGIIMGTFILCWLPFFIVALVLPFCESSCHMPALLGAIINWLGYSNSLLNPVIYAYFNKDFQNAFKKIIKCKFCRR
Put plainly: Binding affinity of compound towards 5-hydroxytryptamine 1A receptor was determined.

For the next assay, the target named is D(2) dopamine receptor (Rattus norvegicus, UniProt P61169). Put plainly: Binding affinity of compound towards Dopamine receptor D2S was determined.
Chain of D(2) dopamine receptor (P61169 whole entry): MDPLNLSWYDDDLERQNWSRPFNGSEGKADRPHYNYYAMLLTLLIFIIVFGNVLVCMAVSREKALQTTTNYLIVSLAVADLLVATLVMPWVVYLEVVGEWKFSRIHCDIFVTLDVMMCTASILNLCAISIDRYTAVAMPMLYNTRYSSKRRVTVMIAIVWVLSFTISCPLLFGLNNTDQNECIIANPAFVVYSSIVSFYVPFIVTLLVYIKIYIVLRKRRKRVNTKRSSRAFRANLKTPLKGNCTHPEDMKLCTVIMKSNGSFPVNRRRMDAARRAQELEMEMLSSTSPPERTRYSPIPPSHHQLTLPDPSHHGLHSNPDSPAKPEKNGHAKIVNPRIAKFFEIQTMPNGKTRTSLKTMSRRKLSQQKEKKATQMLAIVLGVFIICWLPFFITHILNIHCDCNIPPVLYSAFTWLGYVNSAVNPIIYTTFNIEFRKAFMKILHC
The species named for assay [5] is Rattus norvegicus. Put plainly: Inhibition of [3H]- dopamine uptake in rat brain. It is filed as functional, organism-based.
The species named for assay [6] is Rattus norvegicus. Put plainly: Inhibition of [3H]- GABA uptake in rat brain. The assay is classed as functional, organism-based.
Assay [7] addresses T4, Alpha-1B adrenergic receptor (Homo sapiens, UniProt P35368).
T4 sequence (P35368 whole entry): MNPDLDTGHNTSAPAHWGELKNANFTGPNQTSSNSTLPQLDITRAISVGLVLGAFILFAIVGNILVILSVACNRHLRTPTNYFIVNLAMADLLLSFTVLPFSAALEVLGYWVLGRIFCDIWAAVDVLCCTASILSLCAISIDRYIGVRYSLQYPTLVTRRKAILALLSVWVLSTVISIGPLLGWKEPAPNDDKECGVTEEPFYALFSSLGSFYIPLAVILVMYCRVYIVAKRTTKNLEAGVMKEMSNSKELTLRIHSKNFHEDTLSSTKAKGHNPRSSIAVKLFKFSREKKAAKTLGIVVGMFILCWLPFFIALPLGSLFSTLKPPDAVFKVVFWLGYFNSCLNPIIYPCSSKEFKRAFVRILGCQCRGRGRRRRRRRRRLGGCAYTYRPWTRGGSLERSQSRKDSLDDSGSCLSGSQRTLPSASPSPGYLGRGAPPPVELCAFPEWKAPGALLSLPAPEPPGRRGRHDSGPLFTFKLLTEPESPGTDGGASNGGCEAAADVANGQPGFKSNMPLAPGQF
Put plainly: The compound was tested for the binding affinity towards Alpha-1B adrenergic receptor.

Assay [8] addresses T5, Alpha-1A adrenergic receptor (Homo sapiens, UniProt P35348).
T5 sequence (P35348 whole entry): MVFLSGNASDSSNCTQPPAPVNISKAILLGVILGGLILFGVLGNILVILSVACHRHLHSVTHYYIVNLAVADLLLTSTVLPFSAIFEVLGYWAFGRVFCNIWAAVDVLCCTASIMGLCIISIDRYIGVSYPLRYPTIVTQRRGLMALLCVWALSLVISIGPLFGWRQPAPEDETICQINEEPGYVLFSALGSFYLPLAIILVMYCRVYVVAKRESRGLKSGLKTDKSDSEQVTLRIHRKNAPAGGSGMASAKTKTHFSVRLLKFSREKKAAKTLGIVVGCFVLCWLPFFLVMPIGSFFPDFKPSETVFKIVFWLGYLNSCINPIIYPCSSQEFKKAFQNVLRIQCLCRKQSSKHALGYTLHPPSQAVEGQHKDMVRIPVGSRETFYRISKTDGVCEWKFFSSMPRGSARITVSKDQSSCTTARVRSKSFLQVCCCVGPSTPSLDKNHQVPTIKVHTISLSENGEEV
Put plainly: Binding affinity of compound towards Binding affinity towards Alpha-1A adrenergic receptor was determined.

In assay [9] the target is T6, 5-hydroxytryptamine receptor 2C (Rattus norvegicus, UniProt P08909).
T6 sequence (P08909 whole entry): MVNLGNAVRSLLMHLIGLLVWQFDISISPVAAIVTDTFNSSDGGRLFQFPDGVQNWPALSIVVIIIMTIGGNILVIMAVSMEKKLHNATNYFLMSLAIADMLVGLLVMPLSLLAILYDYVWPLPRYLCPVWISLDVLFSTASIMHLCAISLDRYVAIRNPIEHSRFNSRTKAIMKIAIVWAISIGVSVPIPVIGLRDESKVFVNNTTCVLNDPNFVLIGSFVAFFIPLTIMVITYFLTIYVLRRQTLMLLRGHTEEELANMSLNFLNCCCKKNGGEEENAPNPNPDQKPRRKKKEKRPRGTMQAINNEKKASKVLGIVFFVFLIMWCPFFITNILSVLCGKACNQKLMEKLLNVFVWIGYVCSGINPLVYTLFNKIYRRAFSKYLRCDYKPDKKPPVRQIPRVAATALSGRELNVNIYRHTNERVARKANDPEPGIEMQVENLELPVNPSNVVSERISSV
Put plainly: Binding affinity of compound towards serotonin 5-hydroxytryptamine 2C receptor was determined.

The species entered for assay [10] is Rattus norvegicus. Put plainly: Inhibition of [3H]- serotonin uptake in rat brain. It is filed as functional, organism-based.
A further assay deals with Glutamate NMDA receptor. Put plainly: Binding affinity to NMDA glycine co-agonist site with [3H]-MDL- 105,519 as radioligand in rat brain membrane. The assay is classed as cell membranes.
For assay [11], the target named is Beta-1 adrenergic receptor (Homo sapiens, UniProt P08588). Put plainly: Binding affinity of compound towards Beta-1 adrenergic receptor was determined.
Chain of Beta-1 adrenergic receptor (P08588 whole entry): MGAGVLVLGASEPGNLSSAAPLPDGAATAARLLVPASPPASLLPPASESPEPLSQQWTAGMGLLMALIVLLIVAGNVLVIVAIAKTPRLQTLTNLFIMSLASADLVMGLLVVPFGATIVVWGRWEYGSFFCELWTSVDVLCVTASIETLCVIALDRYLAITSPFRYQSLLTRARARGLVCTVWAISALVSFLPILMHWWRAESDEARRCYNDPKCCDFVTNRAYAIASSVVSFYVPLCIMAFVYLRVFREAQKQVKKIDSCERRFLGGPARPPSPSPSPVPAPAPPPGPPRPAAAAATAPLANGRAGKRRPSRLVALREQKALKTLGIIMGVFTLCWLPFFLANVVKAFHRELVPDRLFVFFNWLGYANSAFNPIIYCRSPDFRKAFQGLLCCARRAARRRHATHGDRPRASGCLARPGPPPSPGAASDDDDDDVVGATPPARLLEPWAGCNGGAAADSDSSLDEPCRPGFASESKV
Assay [12] has as its target 5-hydroxytryptamine receptor 6 (Rattus norvegicus, UniProt P31388). Put plainly: Binding affinity of compound towards serotonin 5-hydroxytryptamine 6 receptor was determined.
Assay [13] addresses 5-hydroxytryptamine receptor 7 (Rattus norvegicus, UniProt P32305). Put plainly: Binding affinity of compound towards serotonin 5-hydroxytryptamine 7 receptor was determined.
For assay [14], the target named is T7, Alpha-2C adrenergic receptor (Homo sapiens, UniProt P18825).
T7 sequence (P18825 whole entry): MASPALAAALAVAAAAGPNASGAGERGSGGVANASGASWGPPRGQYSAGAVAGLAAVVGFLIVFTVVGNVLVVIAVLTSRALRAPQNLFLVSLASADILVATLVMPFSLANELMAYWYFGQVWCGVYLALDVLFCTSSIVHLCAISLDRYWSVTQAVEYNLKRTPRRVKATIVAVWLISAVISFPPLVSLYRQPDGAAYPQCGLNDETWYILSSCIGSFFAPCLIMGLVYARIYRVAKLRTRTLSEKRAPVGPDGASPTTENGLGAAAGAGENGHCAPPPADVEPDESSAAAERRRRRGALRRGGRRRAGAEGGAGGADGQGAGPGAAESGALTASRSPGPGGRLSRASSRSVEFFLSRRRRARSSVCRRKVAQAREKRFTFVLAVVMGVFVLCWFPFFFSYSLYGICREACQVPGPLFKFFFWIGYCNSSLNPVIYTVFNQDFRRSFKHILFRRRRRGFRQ
Put plainly: Binding affinity of compound towards Alpha-2C adrenergic receptor was determined.

The species entered for assay [15] is Rattus norvegicus. Put plainly: Inhibition of [3H]- noradrenaline uptake in rat brain. It is filed as functional, organism-based.

Chain of 5-hydroxytryptamine receptor 7 (P32305 whole entry): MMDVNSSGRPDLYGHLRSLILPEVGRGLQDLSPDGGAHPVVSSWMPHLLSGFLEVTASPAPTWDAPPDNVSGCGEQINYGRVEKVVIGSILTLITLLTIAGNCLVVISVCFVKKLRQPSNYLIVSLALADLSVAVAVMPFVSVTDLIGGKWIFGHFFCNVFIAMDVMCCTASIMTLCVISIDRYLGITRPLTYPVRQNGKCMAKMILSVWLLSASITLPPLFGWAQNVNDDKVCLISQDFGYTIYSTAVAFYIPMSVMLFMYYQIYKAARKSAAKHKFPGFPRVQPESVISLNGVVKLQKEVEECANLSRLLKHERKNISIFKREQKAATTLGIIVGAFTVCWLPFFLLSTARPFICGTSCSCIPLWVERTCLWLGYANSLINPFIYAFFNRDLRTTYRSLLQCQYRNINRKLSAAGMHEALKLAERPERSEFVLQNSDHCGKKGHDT
Chain of 5-hydroxytryptamine receptor 2A (P14842 whole entry): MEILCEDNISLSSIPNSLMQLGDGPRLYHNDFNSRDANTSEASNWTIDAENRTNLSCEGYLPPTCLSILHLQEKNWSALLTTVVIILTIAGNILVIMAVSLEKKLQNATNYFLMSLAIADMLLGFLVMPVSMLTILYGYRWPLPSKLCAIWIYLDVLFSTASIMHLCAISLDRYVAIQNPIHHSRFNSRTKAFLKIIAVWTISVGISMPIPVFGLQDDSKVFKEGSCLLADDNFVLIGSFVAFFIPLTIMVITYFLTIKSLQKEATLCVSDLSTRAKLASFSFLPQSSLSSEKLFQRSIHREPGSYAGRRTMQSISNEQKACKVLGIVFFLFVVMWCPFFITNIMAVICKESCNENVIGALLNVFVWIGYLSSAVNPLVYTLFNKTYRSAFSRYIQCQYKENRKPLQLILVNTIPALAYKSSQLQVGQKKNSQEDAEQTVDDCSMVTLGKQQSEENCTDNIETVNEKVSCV
Chain of 5-hydroxytryptamine receptor 6 (P31388 whole entry): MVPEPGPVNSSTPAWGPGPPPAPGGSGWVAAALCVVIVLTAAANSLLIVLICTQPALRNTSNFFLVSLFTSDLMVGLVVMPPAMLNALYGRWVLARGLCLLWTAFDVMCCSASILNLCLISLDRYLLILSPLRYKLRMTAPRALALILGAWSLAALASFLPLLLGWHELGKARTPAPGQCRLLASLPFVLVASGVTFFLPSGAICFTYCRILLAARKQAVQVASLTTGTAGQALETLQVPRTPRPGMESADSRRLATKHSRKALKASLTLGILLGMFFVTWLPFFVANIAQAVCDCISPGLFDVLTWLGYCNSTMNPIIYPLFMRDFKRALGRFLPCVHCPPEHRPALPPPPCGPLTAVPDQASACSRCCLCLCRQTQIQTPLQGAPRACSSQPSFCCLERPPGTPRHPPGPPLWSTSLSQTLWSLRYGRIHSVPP

`COc1ccccc1OC(CCN(C)CC(=O)O)c1ccccc1` (stereo not given) showed an IC50 in assay [1] of 20000 nM.
With `COc1ccc(C(CCN(C)CC(=O)O)Oc2ccc(C(F)(F)F)cc2)cc1` (stereo not given), in assay [1], 501 nM corresponded to half-maximal inhibition (IC50).
As to `CN(CC[C@@H](Oc1ccc(C(F)(F)F)cc1)c1ccccc1)CC(=O)[O-].[Li+]`, the Ki (on D(4) dopamine receptor; in assay [2]; in assay [3]; in [4]; on D(2) dopamine receptor; in assay [7]) was more than 10 µM in each case. The Ki in assay [8], in assay [9], in assay [11], in assay [12], in assay [13] and in assay [14] was more than 10 µM each time. In addition, the IC50 in the assay listed under Rattus norvegicus [5] was more than 100 µM; in [1] it was 126 nM; in the assay listed under Rattus norvegicus [6] it was more than 100 µM; in the assay filed under Rattus norvegicus [10], 50.1 µM; in the assay filed under Rattus norvegicus [15], more than 100 µM. The same compound showed a Log Ki on Glutamate NMDA receptor of more than -4.
For the compound `CN(CCC(Cc1ccc(C(F)(F)F)cc1)c1ccccc1)CC(=O)O` (stereo not given), 1000 nM corresponded to half-maximal inhibition in assay [1] (IC50).
Still for that read-out and setting: next, `CN(CCC(Oc1ccc(C(F)(F)F)cc1)c1ccc(F)cc1)CC(=O)O` (stereo not given): 251 nM.
As for `CN(CC[C@H](Oc1ccc(-c2ccccc2)cc1)c1ccccc1)CC(=O)O`, half-maximal inhibition in assay [1] (IC50) was put at 977 nM.
The compound `CN(CC[C@H](Oc1ccc(C(C)(C)C)cc1)c1ccccc1)CC(=O)O` had an IC50 in [1] of 11700 nM.
The same measure, in the same setting: for `CN(CCC(Oc1ccc(C(F)(F)F)cc1)c1ccccc1)CC(=O)O` (stereo not given) the value was 316 nM; for `COc1ccc(OC(CCN(C)CC(=O)O)c2ccccc2)cc1` (stereo not given), 3980 nM; for `CN(CCC(Oc1ccc(Cl)c(C(F)(F)F)c1)c1ccccc1)CC(=O)O` (stereo not given), 398 nM.
Same read-out and setting: for `CN(CC[C@@H](Oc1ccc(C(C)(C)C)cc1)c1ccccc1)CC(=O)O` the value was 447 nM; for `CN(CCC(Oc1ccc(S(C)(=O)=O)cc1)c1ccccc1)CC(=O)O` (stereo not given), 100000 nM; for `CN(CCC(Oc1ccc(Cl)cc1)c1ccccc1)CC(=O)O` (stereo not given), 1260 nM.
Same read-out and setting: next, `CN(CC[C@H](Oc1ccc(C(F)(F)F)cc1)c1ccccc1)CC(=O)O`: 2630 nM; `CN(CCC(Oc1ccccc1Cl)c1ccccc1)CC(=O)O` (stereo not given): 12600 nM.
As for `Cc1ccc(OC(CCN(C)CC(=O)O)c2ccccc2)cc1` (stereo not given), the IC50 in [1] was 2510 nM.
Still for that read-out and setting: for `CN(CCC(=O)O)CCC(Oc1ccc(C(F)(F)F)cc1)c1ccccc1` (stereo not given) the value was 31600 nM; for `CCN(CCC(Oc1ccc(C(F)(F)F)cc1)c1ccccc1)CC(=O)O` (stereo not given), 5010 nM; for `CN(CC[C@@H](Oc1ccc(-c2ccccc2)cc1)c1ccccc1)CC(=O)O`, 151 nM.
On the same count and under the same terms, for `CN(CCC(Oc1ccc(Cl)c(Cl)c1)c1ccccc1)CC(=O)O` (stereo not given) the value was 501 nM; for `CN(CCC(Oc1ccc(C(F)(F)F)cc1)c1ccc(Cl)cc1)CC(=O)O` (stereo not given), 100 nM; for `CN(CCCC(=O)O)CCC(Oc1ccc(C(F)(F)F)cc1)c1ccccc1` (stereo not given), 100000 nM.
The compound `CN(CCC(Oc1cccc(C(F)(F)F)c1)c1ccccc1)CC(=O)O` (stereo not given) had an IC50 in assay [1] of 2510 nM.

These data come from ChEMBL document CHEMBL1133889, “Discovery and SAR of org 24598-a selective glycine uptake inhibitor” (Bioorg Med Chem Lett, 2001).
